Results published in US20200206198A1, “CFTR CHANNEL ACTIVATOR FOR USE IN THE TREATMENT AND/OR PREVENTION OF GLUTEN SENSITIVITY CONDITIONS” (priority 2017, published 2020).

System: PBMC collected from celiac patients
Assay: Bidimensional co-culture of Caco-2 cells and PBMC from celiac patients
Type: cell-based, human
Protocol: To translate our findings into the relevant clinical setting, we determined whether CFTR potentiators would prevent the HLA-restricted immune response to gliadin by peripheral blood mononuclear cells (PBMC) collected from celiac patients. PBMC collected from 6 celiac patients and 4 healthy controls, were cultured in the lower compartment of a bidimensional co-culture model in which confluent Caco-2 cells were placed in the upper compartment. Then, Caco-2 cells were challenged with PT gliadin or with a combination of P31-43 and P57-68 (or P57-68 alone as a negative control), as described, and IFN-γ and IL-10 were quantified in the supernatants from the lower compartment.
Five ml of peripheral blood have been withdrawn from 8 untreated celiac patients (females and males, age range 8-25 years) and from 3 DQ2+ positive not CD affected controls (healthy first-grade relatives of celiac patients). The Ethics Committee of ISS approved the protocol (# CE/12/341), and patients or patients' parents signed the informed consent. Peripheral blood mononuclear cells were isolated using lympholite (Cederlane, UK) density gradient overlaid by heparin blood diluted 1:1 in PBS and centrifuged (20 min at 900 rpm). After being washed three times, PBMCs were resuspended in complete RPMI 1640 supplemented with 25 mM HEPES, 10% (v/v) heat-inactivated FBS, 100 U/ml penicillin, […] streptomycin, and 1% 2 mM 1-glutamine.
For transwell experiments using polarized Caco-2 cells, 3 weeks prior to the experiment, Caco-2 cells were seeded at a density of 80×10^3 cells×cm^2 on 0.4-μm, 1-cm^2 tissue culture inserts (Costar, Corning Incorporated). Transwell cultures (12-well) with confluent Caco-2 monolayers were used for co-culture with 1 ml PBMC (1.5×10^6 cells/ml) using PBMC medium and kept in an incubator at 37° C. and 5% CO2. Cells were allowed to settle for 1 h before the starting of the experiment. The permeability of the epithelial monolayer was assessed just before the experiments, measuring the transwell electrical resistance between the upper and lower compartments. […]

## CC(C)(C)c1cc(C(C)(C)C)c(NC(=O)c2c[nH]c3ccccc3c2=O)cc1O [VX-770, N-(2,4-di-tert-butyl-5-hydroxyphenyl)-4-oxo-1,4-dihydroquinoline-3-carboxamide]
Celiac PBMC / Caco-2 co-culture
  effect on IFN-γ production induced by the combination of peptides: prevented the production of IFN-γ
Celiac PBMC / Caco-2 co-culture, p<0.01
  IL-10 levels: restored IL-10 levels
p<0.001 vs peptide combination
  effect on IL-15 accumulation in the lower compartment: prevented
